Where two headings read alike, the source gives them in different places.
How the values were obtained:
[1] = test system: T. cruzi amastigotes (Tulahuen C2C4-LacZ); test: Trypanocidal activity against intracellular amastigotes (CPRG, beta-galactosidase); assay type: cell-based, Trypanosoma cruzi; conditions: for Selective Index: LLC-MK2 IC50 vs T. cruzi amastigote IC50; for IC50: 120 h, in LLC-MK2 host cells
Protocol: The antiparasitic activity assays used the Tulahuen C2C4-LacZ strain of the Trypanosoma cruzi parasite, being evaluated in the amastigote forms. […] Trypomastigote forms were collected from the culture supernatant between the 5th and 10th day after infection and separated from non-adherent cells by differential centrifugation. Epimastigote evolutionary form parasites were cultivated in LIT medium (Liver Infusion Tryptose), supplemented with hemin (25 mg/L) + 10% FBS, and incubated at 28 °C, performing successive passages every 6–7 days.
Non-internalized parasites were removed by three successive washes with PBS, followed by treatment with increasing concentrations of the hybrids (0.64–100 µM) in triplicates, pre-diluted in DMEM + 2% FBS. Untreated vehicle (0.2% v/v DMSO) and blank (no added parasites) controls were included in the experiment. Increasing concentrations of Benznidazole were used as the positive control. After incubation for 5 days (120 h), 30 µL of 0.5 mM chlorophenol red substrate β-galactopyranoside (CPRG) in PBS was added with 0.9% v/v of Igepal CA-630.

[2] = Cytotoxicity (MTT) on LLC-MK2 host cells; assay type: cell-based; conditions: rhesus monkey
Description: (§1) Mammalian cells were used to evaluate the cytotoxicity of the tested compounds. […] Cells were dissociated from the monolayer by treatment with a solution containing 0.25% w/v trypsin and 0.04% EDTA.

[3] = test system: A549 cells; test: Antiproliferative activity (MTT) against A549 tumor cell line; assay type: cell-based, human; conditions: for IC50: read-out: A549 IC50; for Selective Index SI A549: PBMC LD50 vs A549 IC50
Protocol: (§2) Cells were treated with increasing concentrations of the hybrids in triplicates, pre-diluted in DMEM + 2% FBS, and incubated for 120 h. The toxic effect of the molecules was also evaluated on human lung cancer cell lines (A549 and H460), as well as on PBMC. […] In all experiments, untreated controls, vehicle (0.2% v/v DMSO), and blanks (no added cells) were included. […] Then, 20 µL of 3.0 mM MTT saline was added and incubated for another 1.5 h. The supernatant was removed, and the MTT formazan crystals were dissolved by adding 120 µL/well of DMSO. After incubation for 1.5 h to dissolve the MTT crystals away from light and at 37 °C, the absorbance was measured at λ = 570 nm using a plate reader.

[4] = test system: H460 cells; test: Antiproliferative activity (MTT) against H460 tumor cell line; assay type: cell-based, human; conditions: for IC50: read-out: H460 IC50; for Selective Index SI H460: PBMC LD50 vs H460 IC50; for Fold increase in potency compared with analog 7, H460: IC50 ratio vs 7
Protocol: as §2

[5] = test system: T. cruzi (Y strain) amastigotes; set-up: method as in PMID 27658305; conditions: cited from earlier work
[6] = test system: peripheral blood mononuclear cells (PBMC); conditions: human, 72 h
Protocol: as §2

[7] = Stability in PBS by HPLC-DAD; assay type: physicochemical; conditions: PBS pH 7.4, 37 °C; for Chemical stability in PBS: 24 h incubation
Protocol: The analytical conditions were as follows: Column Restek, Allure Organic Acid C18, 150 mm × 4.6 mm × 5 µm (Bellefonte, PA, USA); mobile phase, 40% water with 0.1% formic acid, 60% acetonitrile with 0.1% formic acid, 1.0 mL/min, isocratic elution; injection volume, 5 µL; detectors, PDA (200–800 nm). […] After incubation, 100 µL of reaction mixtures were added to 900 µL of HPLC mobile phase and injected.

[8] = test system: T. cruzi epimastigotes (Y strain); set-up: method as in PMID 27658305; conditions: read-out: IC50 against epimastigotes (Y strain); cited from earlier work
[9] = test system: A549 cells; test: Cell cycle analysis by PI flow cytometry; assay type: cell-based, human; conditions: A549, 72 h treatment at IC50; for Cells in G2-M phase: control approximately 20%
Protocol: The cell cycle phase was determined using a PI solution, according to a method described elsewhere. […] Cell cycle determination was performed on a FACScalibur flow cytometer (BD Biosciences, San Diego, CA, USA). Post-analysis of the cell cycle assay was performed using Summit software (version 4.3, Dako Colorado, Fort Collins, CO, USA).

[10] = test system: peripheral blood mononuclear cells (PBMC); test: Cytotoxicity (MTT) on peripheral blood mononuclear cells; conditions: for PBMC LD50: 72 h, MTT
Protocol: as §2

[11] = test system: A549 cells; test: Cell death analysis by Annexin V/PI flow cytometry; assay type: cell-based, human; conditions: A549, 48 h at IC50; control 2.38%
Protocol: Cell death analysis was performed by using an Annexin V/PI double staining kit (PharMingen, San Diego, CA, USA) as previously described. For the assay, the cells were plated at a density of 1 × 10^6 cells/well in six-well plates, 2 mL/well. […] After incubating for 15 min at room temperature in the dark, 400 µL of binding buffer was added. The two-color flow cytometry analysis was performed on a FACSCalibur device (Becton Dickinson, Franklin Lakes, NJ, USA). Post-analysis was performed in Summit software (version 4.3, Dako Colorado, Fort Collins, CO, USA).

[12] = test system: LLC-MK2 (host cells); test: Cytotoxicity (MTT) on LLC-MK2 host cells; assay type: cell-based; conditions: 120 h, MTT
Description: as §1

[13] = Homo sapiens, NCI-H460, 72 h, MTT

Compound: O=C(Cn1ccnc1[N+](=O)[O-])NCc1ccccc1 [Benznidazole, reference compound]
- Selective Index [1]: > 133
- IC50 ([1]; Trypanosoma cruzi, TULAHUEN): 1.5 ± 0.33 µM
- IC50 at 120 h [2]: > 200 µM

Compound: N.N.[Cl][Pt][Cl] [Cisplatin, reference compound]
- IC50 ([3]; 72 h, MTT): 6.05 ± 0.58 µM
- IC50 ([4]; 72 h, MTT): 2.96 ± 0.44 µM

Compound: COc1cc(/C=C/C(=O)CC(=O)/C=C/c2ccc(O)c(OC)c2)ccc1O [Compound 1, (1E,6E)-1,7-Bis(4-hydroxy-3-methoxyphenyl)hepta-1,6-dien-3,5-dione, reference compound]
- Amastigote release from infected mouse macrophages [5]: inhibited amastigote release
- PBMC LD50 [6]: 146.5 ± 12.08 µM
- Fraction decomposed in PBS [7]: approximately 70%
- IC50 [8]: 10.1 µM
- Cells in G2-M phase [9]: 80%
- IC50 ([3]; Homo sapiens, A549, 72 h): 56.5 ± 3.75 µM
- IC50 ([1]; Trypanosoma cruzi, TULAHUEN): 17.8 ± 6.88 µM
- IC50 at 120 h [2]: 25.7 ± 6.05 µM
- IC50 ([4]; Homo sapiens, NCI-H460, 72 h): 37.9 ± 8.81 µM

Compound: O=C(/C=C/c1ccc(O)cc1)CC(=O)/C=C/c1ccc(O)cc1 [Compound 3, (1E,6E)-1,7-Bis(4-hydroxyphenyl)hepta-1,6-diene-3,5-dione, reference compound]
- PBMC LD50 [6]: 134.1 ± 13.30 µM
- IC50 ([3]; Homo sapiens, A549, 72 h, MTT): 46.5 ± 3.45 µM
- Selective Index SI A549 [3]: 2.88
- Selective Index [1]: 1.11
- IC50 ([1]; Trypanosoma cruzi, TULAHUEN): 17.6 ± 0.26 µM
- IC50 at 120 h [2]: 19.7 ± 0.87 µM
- IC50 [4, 13]: 27.1 ± 4.35 µM

Compound: COc1cc(/C=C/C(=O)/C=C/c2ccc(O)c(OC)c2)ccc1O [Compound 4, (1E,4E)-1,5-Bis(4-hydroxy-3-methoxyphenyl)penta-1,4-dien-3-one]
- Chemical stability in PBS [7]: remained untouched
- IC50 ([3]; Homo sapiens, A549, 72 h): 18.1 ± 4.72 µM
- IC50 ([1]; Trypanosoma cruzi, TULAHUEN): 3.92 ± 0.33 µM
- PBMC LD50 [10]: >200 µM
- Toxic effects against peripheral blood mononuclear cells ([10]; higher concentration tested): did not present toxic effects
- IC50 at 120 h [2]: < 6.4 µM
- IC50 ([4]; Homo sapiens, NCI-H460, 72 h): 10.2 ± 3.76 µM
- Selective Index SI H460 [4]: > 19.60

Compound: COc1cc(/C=C/C(=O)c2ccc(O)c(OC)c2)ccc1O [Compound 5, (E)-1,3-Bis(4-hydroxy-3-methoxyphenyl)prop-2-en-1-one]
- PBMC LD50 [6]: 119.1 ± 16.35 µM
- IC50 ([3]; Homo sapiens, A549, 72 h, MTT): 58 ± 6.75 µM
- Selective Index SI A549 [3]: 2.05
- Selective Index [1]: 0.55
- IC50 ([1]; Trypanosoma cruzi, TULAHUEN): 15.6 ± 4.08 µM
- IC50 at 120 h ([2]; 120 h, MTT, read-out: LLC-MK2 (Host Cells) 120 h IC50): 8.72 ± 2.42 µM
- IC50 [4, 13]: 1.74 ± 0.28 µM
- Selective Index SI H460 [4]: 68.44

Compound: COc1cc(/C=C2\CC/C(=C\c3ccc(O)c(OC)c3)C2=O)ccc1O [Compound 6, 2,5-Bis((E)-4-hydroxy-3-methoxybenzylidene)cyclopentan-1-one]
- PBMC LD50 [6]: 141.1 ± 18.53 µM
- IC50 ([3]; Homo sapiens, A549, 72 h, MTT): 71.3 ± 1.53 µM
- Selective Index SI A549 [3]: 1.97
- IC50 ([1]; Trypanosoma cruzi, TULAHUEN): 8.35 ± 2.35 µM
- IC50 at 120 h [2]: < 6.4 µM
- IC50 [4, 13]: 36.1 ± 7.14 µM
- Selective Index SI H460 [4]: 3.90

Compound: COc1cc(/C=C2\CCC/C(=C\c3ccc(O)c(OC)c3)C2=O)ccc1O [Compound 7, 2,6-Bis((E)-4-hydroxy-3-methoxybenzylidene)cyclohexan-1-one]
- PBMC LD50 [6]: >200 µM
- IC50 ([3]; Homo sapiens, A549, 72 h, MTT): 76.2 ± 9.49 µM
- IC50 ([1]; Trypanosoma cruzi, TULAHUEN): 4.91 ± 0.4 µM
- IC50 at 120 h [2]: < 6.4 µM
- IC50 [4, 13]: 42.6 ± 3.94 µM

Compound: COc1cc(/C=C2\COC/C(=C\c3ccc(O)c(OC)c3)C2=O)ccc1O [Compound 8, (3E,5E)-3,5-Bis(4-hydroxy-3-methoxybenzylidene)tetrahydro-4H-pyran-4-one]
- PBMC LD50 [6]: 131.8 ± 14.52 µM
- Chemical stability in PBS [7]: remained untouched
- IC50 ([3]; Homo sapiens, A549, 72 h, MTT): 8.1 ± 1.27 µM
- Fold increase in potency compared with parent derivative 7, A549 ([3]; IC50 ratio vs 7): ~10 fold
- Selective Index SI A549 [3]: 16.27
- Selective Index [1]: 1.60
- IC50 ([1]; Trypanosoma cruzi, TULAHUEN): 12.8 ± 5.17 µM
- IC50 at 120 h [2]: 20.6 ± 4.65 µM
- IC50 [4, 13]: 1.46 ± 0.28 µM
- Fold increase in potency compared with analog 7, H460 [4]: ~30 fold

Compound: COc1cc(/C=C2\CN(C)C/C(=C\c3ccc(O)c(OC)c3)C2=O)ccc1O [Compound 9, (3E,5E)-3,5-Bis(4-hydroxy-3-methoxybenzylidene)-1-methylpiperidin-4-one]
- PBMC LD50 [6]: 73.25 ± 5.87 µM
- IC50 ([3]; Homo sapiens, A549, 72 h, MTT): 61.1 ± 6.2 µM
- Selective Index SI A549 [3]: 1.19
- Selective Index [1]: 2.95
- IC50 ([1]; Trypanosoma cruzi, TULAHUEN): 9.6 ± 1.61 µM
- IC50 at 120 h [2]: 28.4 ± 3.8 µM
- IC50 [4, 13]: 9.89 ± 3.03 µM
- Fold increase in potency compared with analog 7, H460 [4]: 4.3 fold
- Selective Index SI H460 [4]: 7.40

Compound: COc1cc(/C=C2\CSC/C(=C\c3ccc(O)c(OC)c3)C2=O)ccc1O [Compound 10, (3Z,5Z)-3,5-Bis(4-hydroxy-3-methoxybenzylidene)dihydro-2H-thiopyran-4(3H)-one]
- PBMC LD50 [6]: 186.4 ± 35.15 µM
- IC50 ([3]; Homo sapiens, A549, 72 h, MTT): 37 ± 8.28 µM
- Selective Index SI A549 [3]: 5.04
- Selective Index [1]: 2.20
- IC50 ([1]; Trypanosoma cruzi, TULAHUEN): 5.87 ± 2.89 µM
- IC50 at 120 h [2]: 13 ± 2.36 µM
- IC50 [4, 13]: 12.8 ± 3.94 µM
- Selective Index SI H460 [4]: 14.56

Compound: COc1cc(/C=C2\C[S+]([O-])C/C(=C\c3ccc(O)c(OC)c3)C2=O)ccc1O (stereo not drawn) [Compound 11, (3Z,5Z)-3,5-Bis(4-hydroxy-3-methoxybenzylidene)dihydro-2H-thiopyran-4(3H)-one 1-oxide]
- PBMC LD50 [6]: >200 µM
- IC50 ([3]; Homo sapiens, A549, 72 h, MTT): 7.74 ± 1.65 µM
- Selective Index [1]: 1.70
- IC50 ([1]; Trypanosoma cruzi, TULAHUEN): 16.7 ± 4.67 µM
- IC50 at 120 h [2]: 28.5 ± 5.17 µM
- IC50 [4, 13]: 1.02 ± 0.29 µM
- Selective Index SI H460 [4]: > 196.07

Compound: COc1cc(/C=C2\CS(=O)(=O)C/C(=C\c3ccc(O)c(OC)c3)C2=O)ccc1O [Compound 12, (3Z,5Z)-3,5-Bis(4-hydroxy-3-methoxybenzylidene)dihydro-2H-thiopyran-4(3H)-one 1,1-dioxide]
- PBMC LD50 [6]: 173.0 ± 37.4 µM
- Double-positive cells for annexin and PI (late apoptosis) [11]: 14.98%
- Cells in sub-G0 phase [9]: 30%
- Cells in G2-M phase [9]: 60%
- IC50 ([3]; Homo sapiens, A549, 72 h, MTT): 5.89 ± 2.81 µM
- Selective Index SI A549 [3]: 29.37
- Selective Index [1]: 1.56
- IC50 ([1]; Trypanosoma cruzi, TULAHUEN): 7.33 ± 0.43 µM
- IC50 at 120 h [2]: 11.5 ± 3.71 µM
- IC50 [4, 13]: 0.27 ± 0.2 µM
- Selective Index SI H460 [4]: 640.74

Compound: (1E,6E)-1-(4-Hydroxy-3-methoxyphenyl)-7-(4-hydroxyphenyl)hepta-1,6-dien-3,5-dione [Compound 2, reference compound]
- IC50 ([3]; 72 h, MTT): 73.3 ± 6.98 µM
- Selective Index SI A549 [3]: 1.96
- IC50 [1]: 31.3 ± 0.77 µM
- Selective Index [1]: 0.72
- PBMC LD50 [10]: 144.3 ± 12.30 µM
- IC50 [12]: 22.7 ± 3.71 µM
- IC50 ([4]; 72 h, MTT): 25.1 ± 5.55 µM
- Selective Index SI H460 [4]: 5.76

From paper PMC12030033, “Design and Synthesis of Bis-Chalcones as Curcumin Simplified Analogs and Assessment of Their Antiproliferative Activities Against Human Lung Cancer Cells and Trypanosoma cruzi Amastigotes” (Pharmaceuticals, 2025)
